Laboratory results reported in patent publication US9233077B2, “Delayed release cysteamine bead formulation, and methods of making and using same” (RAPTOR PHARMACEUTICALS INC., priority 2013, dated 2016).

Assay: Plasma protein binding of cysteamine
Assay type: in vitro ADME
Settings: human plasma proteins, predominantly albumin

**Q.** For `NCCS` [cysteamine], which fraction unbound is on record?
**A.** ~0.48
